# Source: ChEMBL document CHEMBL4828714, “Mutasynthesis of Antibacterial Halogenated Actinomycin Analogues” (J Nat Prod, 2021)
# Columns and labels:
# [1] = tested on: Candida albicans; experiment: Antimicrobial activity against Candida albicans assessed as inhibition of bacterial growth incubated for 16 to 18 hrs by broth micro dilution technique; format: functional; settings: time 16-18 hrs
# [2] = tested on: Micrococcus luteus; experiment: Antimicrobial activity against Micrococcus luteus ML01 assessed as inhibition of bacterial growth incubated for 16 to 18 hrs by broth micro dilution technique; format: functional; settings: time 16-18 hrs
# [3] = tested on: A549; experiment: Cytotoxicity against human A549 cells assessed as growth inhibition incubated for 68 hrs by MTT assay; format: functional, cell-based; settings: A549, 68 h
# [4] = tested on: HL-60; experiment: Cytotoxicity against human HL-60 cells assessed as growth inhibition incubated for 68 hrs by MTT assay; format: functional, cell-based; settings: HL-60, 68 h
# [5] = tested on: Enterococcus faecium; experiment: Antimicrobial activity against Enterococcus faecium ATCC 35682 assessed as inhibition of bacterial growth incubated for 16 to 18 hrs by broth micro dilution technique; format: functional; settings: time 16-18 hrs
# [6] = tested on: Staphylococcus aureus; experiment: Antimicrobial activity against Staphylococcus aureus Sau 16162 assessed as inhibition of bacterial growth incubated for 16 to 18 hrs by broth micro dilution technique; format: functional; settings: time 16-18 hrs
# [7] = tested on: Staphylococcus aureus; experiment: Antimicrobial activity against Staphylococcus aureus ATCC 29213 assessed as inhibition of bacterial growth incubated for 16 to 18 hrs by broth micro dilution technique; format: functional; settings: time 16-18 hrs
# [8] = tested on: Bacillus thuringiensis; experiment: Antimicrobial activity against Bacillus thuringiensis BT01 assessed as inhibition of bacterial growth incubated for 16 to 18 hrs by broth micro dilution technique; format: functional; settings: time 16-18 hrs
# [9] = tested on: Staphylococcus aureus; experiment: Antimicrobial activity against Staphylococcus aureus Sau 718306 assessed as inhibition of bacterial growth incubated for 16 to 18 hrs by broth micro dilution technique; format: functional; settings: time 16-18 hrs
# [10] = tested on: Enterococcus faecalis; experiment: Antimicrobial activity against Enterococcus faecalis ATCC 29212 assessed as inhibition of bacterial growth incubated for 16 to 18 hrs by broth micro dilution technique; format: functional; settings: time 16-18 hrs
# [11] = tested on: Staphylococcus aureus; experiment: Antimicrobial activity against Staphylococcus aureus Sau 6917 assessed as inhibition of bacterial growth incubated for 16 to 18 hrs by broth micro dilution technique; format: functional; settings: time 16-18 hrs
# [12] = tested on: MCF7; experiment: Cytotoxicity against human MCF7 cells assessed as growth inhibition incubated for 68 hrs by MTT assay; format: functional, cell-based; settings: MCF7, 68 h
# [13] = tested on: Staphylococcus aureus; experiment: Antimicrobial activity against Staphylococcus aureus Sau 745524 assessed as inhibition of bacterial growth incubated for 16 to 18 hrs by broth micro dilution technique; format: functional; settings: time 16-18 hrs
# [14] = tested on: Staphylococcus aureus; experiment: Antimicrobial activity against Staphylococcus aureus Sau 1862 assessed as inhibition of bacterial growth incubated for 16 to 18 hrs by broth micro dilution technique; format: functional; settings: time 16-18 hrs
# [15] = tested on: HepG2; experiment: Cytotoxicity against human HepG2 cells assessed as growth inhibition incubated for 68 hrs by MTT assay; format: functional, cell-based; settings: HepG2, 68 h
# [16] = tested on: Staphylococcus aureus; experiment: Antimicrobial activity against Staphylococcus aureus Sau 991 assessed as inhibition of bacterial growth incubated for 16 to 18 hrs by broth micro dilution technique; format: functional; settings: time 16-18 hrs
# [17] = tested on: L02; experiment: Cytotoxicity against human L02 cells assessed as growth inhibition incubated for 68 hrs by MTT assay; format: cell-based; settings: L02, 68 h
# [18] = tested on: RKO; experiment: Cytotoxicity against human RKO cells assessed as growth inhibition incubated for 68 hrs by MTT assay; format: functional, cell-based
# [19] = tested on: BEAS-2B; experiment: Cytotoxicity against human BEAS-2B cells assessed as growth inhibition incubated for 68 hrs by MTT assay; format: cell-based
# [20] = tested on: Staphylococcus aureus; experiment: Antimicrobial activity against Staphylococcus aureus CCAM 3090 assessed as inhibition of bacterial growth incubated for 16 to 18 hrs by broth micro dilution technique; format: functional; settings: time 16-18 hrs
# [21] = tested on: HeLa; experiment: Cytotoxicity against human HeLa cells assessed as growth inhibition incubated for 68 hrs by MTT assay; format: functional, cell-based
MIC [1] [µg/mL],MIC [2] [µg/mL],MIC [5] [µg/mL],MIC [6] [µg/mL],MIC [7] [µg/mL],MIC [8] [µg/mL],MIC [9] [µg/mL],MIC [10] [µg/mL],MIC [11] [µg/mL],MIC [13] [µg/mL],MIC [14] [µg/mL],MIC [16] [µg/mL],MIC [20] [µg/mL],SMILES,IC50 [3] [µM],IC50 [4] [µM],IC50 [12] [µM],IC50 [15] [µM],IC50 [17] [µM],IC50 [18] [µM],IC50 [19] [µM],other results
16,0.06,0.13,16,32,0.5,16,16,32,16,16,16,32,CC(C)[C@H]1C(=O)O[C@H](C)[C@H](NC(=O)c2c3nc4c(C(=O)N[C@@H]5C(=O)N[C@H](C(C)C)C(=O)N6CCC[C@H]6C(=O)N(C)CC(=O)N(C)[C@@H](C(C)C)C(=O)O[C@@H]5C)ccc(Cl)c4oc-3c(Cl)c(=O)c2N)C(=O)N[C@H](C(C)C)C(=O)N2CCC[C@H]2C(=O)N(C)CC(=O)N1C,4.5,0.2,17.3,2.8,4.6,11.1,1,IC50 [21]: 51 µM
64,2,4,32,32,16,32,64,32,32,32,32,32,CC(C)[C@H]1C(=O)O[C@H](C)[C@H](NC(=O)c2c3nc4c(C(=O)N[C@@H]5C(=O)N[C@H](C(C)C)C(=O)N6CCC[C@H]6C(=O)N(C)CC(=O)N(C)[C@@H](C(C)C)C(=O)O[C@@H]5C)ccc(F)c4oc-3c(F)c(=O)c2N)C(=O)N[C@H](C(C)C)C(=O)N2CCC[C@H]2C(=O)N(C)CC(=O)N1C,> 50,> 50,17.1,> 50,> 50,> 50,> 50,IC50 [21]: > 50 µM
2,0.06,2,8,4,1,2,4,4,2,4,4,4,CC(C)[C@H]1C(=O)O[C@H](C)[C@H](NC(=O)c2c3nc4c(C(=O)N[C@@H]5C(=O)N[C@H](C(C)C)C(=O)N6CCC[C@H]6C(=O)N(C)CC(=O)N(C)[C@@H](C(C)C)C(=O)O[C@@H]5C)cccc4oc-3c(I)c(=O)c2N)C(=O)N[C@H](C(C)C)C(=O)N2CCC[C@H]2C(=O)N(C)CC(=O)N1C,34,0.4,25.7,3.3,20.9,3.3,12.4,IC50 [21]: 10 µM

# Second part, the molecule before the results:
SMILES,MIC [1] [µg/mL],MIC [2] [µg/mL],MIC [5] [µg/mL],MIC [6] [µg/mL],MIC [7] [µg/mL],MIC [8] [µg/mL],MIC [9] [µg/mL],MIC [10] [µg/mL],MIC [11] [µg/mL],MIC [13] [µg/mL],MIC [14] [µg/mL],MIC [16] [µg/mL],MIC [20] [µg/mL],IC50 [3] [µM],IC50 [4] [µM],IC50 [12] [µM],IC50 [15] [µM],IC50 [17] [µM],IC50 [18] [µM],IC50 [19] [µM],other results
CC(C)[C@H]1C(=O)O[C@H](C)[C@H](NC(=O)c2c3nc4c(C(=O)N[C@@H]5C(=O)N[C@H](C(C)C)C(=O)N6CCC[C@H]6C(=O)N(C)CC(=O)N(C)[C@@H](C(C)C)C(=O)O[C@@H]5C)ccc(I)c4oc-3cc(=O)c2N)C(=O)N[C@H](C(C)C)C(=O)N2CCC[C@H]2C(=O)N(C)CC(=O)N1C,0.5,0.06,0.5,4,1,0.25,1,2,1,0.5,2,1,1,9,0.07,2,0.1,1.7,0.1,0.5,IC50 [21]: 4.4 µM
CC(C)[C@H]1C(=O)O[C@H](C)[C@H](NC(=O)c2c3nc4c(C(=O)N[C@@H]5C(=O)N[C@H](C(C)C)C(=O)N6CCC[C@H]6C(=O)N(C)CC(=O)N(C)[C@@H](C(C)C)C(=O)O[C@@H]5C)ccc(Br)c4oc-3c(Br)c(=O)c2N)C(=O)N[C@H](C(C)C)C(=O)N2C[C@@H](O)C[C@H]2C(=O)N(C)CC(=O)N1C,8,0.5,2,16,16,2,16,32,32,16,16,16,16,53.7,0.2,2.9,3,3.1,1.3,0.9,IC50 [21]: 2.4 µM
